Experimental data published in publication PMC2071910 (Respiratory Research, 2007).
Like-named read-outs stand apart in the source and are kept apart here. Each block holds one molecule with its values, some of them ahead of it.

Legend:
[1] = In vitro metabolism in human lung precision-cut tissue slices, HPLC with UV detection; type: in vitro ADME; conditions: for Share of BDP-related material in tissue / Share of BDP-related material in medium: incubation of BDP 25 μM; for Share of BDP-related material in tissue: lung tissue extract; for Total amount in human lung tissue slices: Parent compound / Relative drug amount in human lung tissue slices: Parent compound: tissue extract; for Total amount in human lung tissue slices: Parent compound / Relative drug amount in human lung tissue slices: Parent compound / Relative drug amount in medium: Parent compound: mean ± SD n = 9; for Metabolites detected in incubation medium: incubation medium, 2, 6 and 24 h; for Relative drug amount in medium: Parent compound: incubation medium, initial 25 μM
Experimental: Lung slices were prepared at Vitron, Inc. (Tucson, AZ, USA) as previously described. In brief, the lungs were inflated with 2 to 4 L of 0.5% agar/Waymouth's medium mixture at 37°C and were stored at 4°C for 30 to 60 min. Each lung was cut into 2 cm thick slabs, placed on dental wax, and tissue cylinders of 8 mm diameter were prepared using a cordless coring tool. 400 μm thick slices were cut from the cylinders using a Brendel-Vitron tissue slicer.
Three lung slices from each donor were floated onto titanium roller inserts, blotted, and loaded horizontally into glass scintillation vials containing 1.7 mL of Waymouth's MB752/1 tissue culture medium fortified with 10% fetal calf serum, 0.35 g/L L-glutamine, 10 mL/L Fungi-Bact, and 84 μg/mL gentamicin sulfate.
Three vials were used per substrate and time point. A stock solution of the substrate was added prior to dispensing the media into vials. The final substrate concentration was 25 μM. The vials were closed with caps that had central 2-mm holes, placed in a Dynamic Organ Culture incubator (Vitron, Inc., Tucson, AZ, USA) at 37°C, and exposed to 95% O2 and 5% CO2. The human tissue slices were incubated for 2, 6, and 24 h, and cellular viability of human lung slices was assessed using separate incubation samples (see assessment of cellular viability). Slices and media from each vial were harvested separately into separate tubes and stored at -80°C. Metabolism samples containing either tissue or media were shipped on dry ice from Vitron, Inc. to ALTANA Pharma AG for analysis.
The volume of medium was measured at the end of the incubation period. Samples of the incubation medium were prepared by mixing 60 μL of medium with 60 μL of solution for precipitation (0.2 M ZnSO4/ACN, 1:1). Following centrifugation for 5 min (1,000 × g Model5414, Eppendorf) at room temperature, the supernatant was assayed by high performance liquid chromatography (HPLC). Tissue samples were homogenized in 1 mL of methanol using ultrasonic treatment (Branson Sonifier 250; Branson Ultrasonics Corporation, Danbury, Conn) and were centrifuged for 5 min (1,000 × g Model5414, Eppendorf) at room temperature. After centrifugation, 333 μL of the supernatant was dried under a gentle stream of nitrogen at 45°C and resuspended in 75 μL of methanol before analysis.
HPLC analysis was performed using a Hewlett-Packard HP1090 liquid chromatograph (Agilent Technologies Deutschland GmbH, Waldbronn, Germany) with an ultraviolet (UV) detector monitoring at 242 nm. Separation was achieved using a Hypersil MOS column (125 × 4 mm, 5 μm) (Thermo Electron Corp., Dreieich, Germany). A water/ethanol gradient system was run from 30 to 90% ethanol in 10 min followed by an isocratic phase (6 min) with 90% ethanol at a flow rate of 0.75 mL/min. 25 μL of the tissue extract or 100 μL of the supernatant of the medium were injected onto the column.

[2] = cited from earlier work
glucocorticoid receptor = conditions: in words, compared with des-CIC and BMP; cited from earlier work
[3] = set-up: method as in earlier work; conditions: cited from earlier work
[4] = set-up: method as in PMID 16566061; conditions: 14C-ciclesonide 25 μM, previous study; cited from earlier work
[5] = directly after inhalation of CIC 800 μg via MDI; cited from earlier work
[6] = after inhalation of 1 mg BDP via MDI (Aerobec)
[7] = after inhalation of 1600 μg BUD via Nebuhaler

Share of BDP-related material in tissue ([1]; 24 h): 26.6% | Share of BDP-related material in medium ([1]; 24 h): 8.4% | Amount of fatty acid esters formed, fold less than for BUD and des-CIC ([1]; lung tissue, esters formed by BMP (and/or BOH)): approximately 10 fold
SMILES: CCC(=O)O[C@]1(C(=O)CO)[C@@H](C)C[C@H]2[C@@H]3CCC4=CC(=O)C=C[C@]4(C)[C@@]3(Cl)[C@@H](O)C[C@@]21C [BMP, beclomethasone-17-monopropionate]
Median concentration in bronchial tissue [2, 6]: 4.4 ng/g tissue | Median concentration in serum [2, 6]: 1.2 ng/mL

Share of BDP-related material in tissue ([1]; 24 h): 64.9% | Share of BDP-related material in medium ([1]; 24 h): 91.6%
SMILES: C[C@H]1C[C@H]2[C@@H]3CCC4=CC(=O)C=C[C@]4(C)[C@@]3(Cl)[C@@H](O)C[C@]2(C)[C@@]1(O)C(=O)CO [BOH, beclomethasone]

Total amount in human lung tissue slices: Parent compound ([1]; 2 h, 25 μM): 2.19 ± 0.83 nmol/vial | Total amount in human lung tissue slices: Parent compound ([1]; 6 h, 25 μM): 0.72 ± 0.46 nmol/vial
SMILES: CCC(=O)OCC(=O)[C@@]1(OC(=O)CC)[C@@H](C)C[C@H]2[C@@H]3CCC4=CC(=O)C=C[C@]4(C)[C@@]3(Cl)[C@@H](O)C[C@@]21C [Beclomethasone dipropionate, beclomethasone dipropionate]

SMILES: CCCC1O[C@@H]2C[C@H]3[C@@H]4CCC5=CC(=O)C=C[C@]5(C)[C@H]4[C@@H](O)C[C@]3(C)[C@]2(C(=O)CO)O1 (some centres unmarked) [Budesonide, budesonide]
Metabolites detected in incubation medium ([1]; 25 μM, listed as BUD): no metabolites were detected | Relative drug amount in human lung tissue slices: Parent compound ([1]; 2 h, 25 μM): 72.2 ± 10.8 % of total UV areas | Total amount in human lung tissue slices: Parent compound ([1]; 2 h, 25 μM): 7.32 ± 0.99 nmol/vial | Relative drug amount in human lung tissue slices: Parent compound ([1]; 6 h, 25 μM): 64.9 ± 12.0 % of total UV areas | Total amount in human lung tissue slices: Parent compound ([1]; 6 h, 25 μM): 8.41 ± 2.15 nmol/vial | Relative drug amount in human lung tissue slices: Parent compound ([1]; 24 h, 25 μM): 53.6 ± 11.5 % of total UV areas | Total amount in human lung tissue slices: Parent compound ([1]; 24 h, 25 μM): 9.04 ± 1.14 nmol/vial | Affinity to the glucocorticoid receptor (glucocorticoid receptor): slightly lower | Mean concentration in blood plasma [2, 7]: 0.63 nmol/kg | Mean concentration in lung tissue obtained from resections [2, 7]: 5.5 nmol/kg

Relative drug amount in medium: Parent compound ([1]; 2 h): 94.9 ± 1.3 % of total UV areas | Relative drug amount in medium: Parent compound ([1]; 6 h): 83.2 ± 5.5 % of total UV areas | Relative drug amount in medium: Parent compound ([1]; 24 h): 37.4 ± 7.8 % of total UV areas | Relative drug amount in medium: Parent compound ([1]; 24 h, listed as CIC): 37 % of total UV areas | Relative drug amount in human lung tissue slices: Parent compound ([1]; 2 h, 25 μM): 85.0 ± 3.4 % of total UV areas | Total amount in human lung tissue slices: Parent compound ([1]; 2 h, 25 μM): 6.46 ± 0.92 nmol/vial | Relative drug amount in human lung tissue slices: Parent compound ([1]; 6 h, 25 μM): 73.5 ± 4.7 % of total UV areas | Total amount in human lung tissue slices: Parent compound ([1]; 6 h, 25 μM): 8.86 ± 1.68 nmol/vial | Relative drug amount in human lung tissue slices: Parent compound ([1]; 24 h, 25 μM): 40.0 ± 7.6 % of total UV areas | Total amount in human lung tissue slices: Parent compound ([1]; 24 h, 25 μM): 9.53 ± 1.70 nmol/vial
SMILES: CC(C)C(=O)OCC(=O)[C@@]12O[C@H](C3CCCCC3)O[C@@H]1C[C@H]1[C@@H]3CCC4=CC(=O)C=C[C@]4(C)[C@H]3[C@@H](O)C[C@@]12C [Ciclesonide, ciclesonide]
logD [3]: 6.1

SMILES: CCCCCCCCC=CCCCCCCCC(=O)OCC(=O)C12OC(C3CCCCC3)OC1CC1C3CCC4=CC(=O)C=CC4(C)C3C(O)CC12C (centres unmarked) [Des-CIC-oleate]
Lipophilicity relative to BUD-oleate ([3]; from logD 13.0 vs 12.3): about 5 fold

Metabolites detected in incubation medium ([1]; 25 μM, listed as FP): no metabolites were detected | Metabolites detected in tissue extract / metabolic stability ([1]; tissue extract, 2, 6 and 24 h, 25 μM): no metabolites were detected | Relative drug amount in human lung tissue slices: Parent compound ([1]; 2 h, 25 μM): 100 ± 0.0 % of total UV areas | Total amount in human lung tissue slices: Parent compound ([1]; 2 h, 25 μM): 8.42 ± 1.26 nmol/vial | Relative drug amount in human lung tissue slices: Parent compound ([1]; 6 h, 25 μM): 100 ± 0.0 % of total UV areas | Total amount in human lung tissue slices: Parent compound ([1]; 6 h, 25 μM): 8.62 ± 2.20 nmol/vial | Relative drug amount in human lung tissue slices: Parent compound ([1]; 24 h, 25 μM): 100 ± 0.0 % of total UV areas | Total amount in human lung tissue slices: Parent compound ([1]; 24 h, 25 μM): 9.51 ± 2.22 nmol/vial
SMILES: CCC(=O)O[C@]1(C(=O)SCF)[C@H](C)C[C@H]2[C@@H]3C[C@H](F)C4=CC(=O)C=C[C@]4(C)[C@@]3(F)[C@@H](O)C[C@@]21C [Fluticasone propionate, fluticasone propionate]
Affinity to the glucocorticoid receptor (glucocorticoid receptor): higher | Concentration in central lung tissue ([2]; after single inhalation of FP, in a few patients): more than 20 ng/g | Mean concentration in serum ([2]; after single inhalation of FP, same time as lung tissue sample): approximately 0.02 ng/mL | logD ([3]; pH 7.4): 3.7

SMILES: C[C@]12C=CC(=O)C=C1CC[C@@H]1[C@@H]2[C@@H](O)C[C@@]2(C)[C@H]1C[C@H]1O[C@@H](C3CCCCC3)O[C@]12C(=O)CO [des-CIC, desisobutyryl-ciclesonide]
Relative percentage of des-CIC at the end of the incubation period ([1]; incubation of CIC 25 μM, 24 h, present study): 32% | Relative percentage of des-CIC at the end of the incubation period [4]: 29% | Affinity to the glucocorticoid receptor (glucocorticoid receptor): high affinity | Amount detected in mouth rinsing solutions [5]: Only traces
